Reference: PubChem BioAssay AID1963840 (Molecular Pharmacology Branch, DTP, NCI, 2024)

Test system: 695427-040-R-J1-PDC complex spheroid viability
Experiment: Anticancer human tumor 695427-040-R-J1-PDC patient-derived colon adenocarcinoma cell line growth inhibition [POLQ]
Conditions: for IC50: curve of first compound; for viability, T/C: stronger effect = lower value
Method: Multicellular complex tumor spheroid response to Polymerase (POL) inhibitors (novobiocin, ART-558, RP6685) in combination with a variety of drugs and investigational agents in selected tumor cell lines
The POL inhibitors (novobiocin, ART-558, and RP6685) were evaluated both individually and in combination with standard of care and investigational anticancer small molecules within a complex spheroid model of solid tumors. . Complex spheroids include a stromal component modeled by human endothelial cells (HUVEC) and fibroblasts modeled by human mesenchymal stem cells (MSCs). The concentration ranges selected for each drug and investigational agent were based upon clinically achievable concentrations if the clinical Cmax of the agent was known.
Compounds. The drugs and investigational agents: novobiocin (NSC847541), ART-558 (NSC835418), RP-6685 (NSC848927), peposertib (NSC802822), ceralasertib (NSC780249), elimusertib (NSC800525), camonsertib (NSC841442), AZD-1390 (NSC803789), olaparib (NSC753686), talazoparib (NSC767125), rucaparib (NSC756644), sotorasib (NSC818433), MRTX-1133 (NSC836407), SN-38 (NSC673596), topotecan (NSC609699), epotoside (NSC141540), doxorubicin (NSC123127), gemcitabine (NSC613327), 5-fluorouracil (NSC19893), paclitaxel (NSC125973), vemurafenib (NSC761431), MSA-2 (NSC828583), SN-011 (NSC837082), adavosertib (NSC754352), prexasertib (NSC758257), carboplatin (NSC241240) and oxaliplatin (NSC266046), were obtained from the National Cancer Institute (NCI) Developmental Therapeutics Program Chemical Repository (21). The FDA-approved anticancer drug set is available from the Developmental Therapeutics Program at https://dtp.cancer.gov/organization/dscb/obtaining/. […] The stock solutions were prepared in dimethyl sulfoxide (DMSO, Sigma-Aldrich, St. Louis, MO, cat. D2650), except for the platinum compounds which were prepared in saline (Quality Biological, Gaithersburg, MD, cat. 114-055-101), at 800-fold the tested concentration and stored at -70 degrees C prior to their use. All drugs and investigational agents were tested over a range starting from a high concentration at or near the clinical Cmax and decreasing in half-log increments. If the clinical Cmax for an agent had not been determined, the highest concentration tested was 10 microM, except for SN-38, which was tested at a high concentration of 1 microM.
Cell Culture. All cells were maintained in an incubator at 37 degrees C and 5% CO2 with 95% humidity. The PDC lines were cultured according to standard operating procedures established by the NCI PDMR (https://pdmr.cancer.gov). Table 3 of the manuscript, lists the cell lines along with the number of the three cell types plated to form the mct-spheroids and media for tumor cell growth. After thawing, all PDC lines, except 997537-175-T-J1-PDC and 415267-285-R-J2-PDC, were cultured in Matrigel-coated flasks prepared with a working solution of 1X Ham's F-12 nutrient mix, without supplementation (Thermo Fisher Scientific, cat. 11765054), 100 U/mL penicillin-streptomycin (Thermo Fisher Scientific, cat. 15140122), and 2.5% Matrigel (Corning Inc., Corning, NY, cat. 354248) for the first three passages. The two PDC lines 997537-175-T-J1-PDC and 415267-285-R-J2-PDC were cultured on uncoated flasks. The 857933-349-R-J2-PDC line was cultured in 6C/Colon 1B media containing advanced DMEM/F-12 (Thermo Fisher Scientific, cat. 12634028), 10 mM HEPES (Thermo Fisher Scientific, cat. 15630080), 1X GlutaMAX supplement (Thermo Fisher Scientific, cat. 35050061), 0.1 mg/mL primocin (InvivoGen, San Diego, CA, cat. ant-pm-2), 10% defined fetal bovine serum, heat inactivated (HyClone Laboratories Inc., Logan, UT, cat. SH30070.03HI), 50% L-WRN conditioned media (ATCC, cat. CRL-3276), 1.25 mM N-Acetyl-L-cysteine (Sigma-Aldrich, cat. A9165), 10 mM nicotinamide (Sigma-Aldrich, cat. N0636), 1X B-27 supplement (Thermo Fisher Scientific, cat. 17504044), 1X N-2 supplement (Thermo Fisher Scientific, cat. […]
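Note: spheroids exposed to compounds for seven days.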
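Throughout, for viability, T/C: 100% = DMSO vehicle control viability.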

## CC(=O)O[C@H]1C(=O)[C@@]2(C)[C@H]([C@H](OC(=O)c3ccccc3)[C@]3(O)C[C@H](OC(=O)[C@H](O)[C@@H](NC(=O)c4ccccc4)c4ccccc4)C(C)=C1C3(C)C)[C@]1(OC(C)=O)CO[C@@H]1C[C@@H]2O + COC1C(OC(N)=O)C(O)C(Oc2ccc3c(O)c(NC(=O)c4ccc(O)c(CC=C(C)C)c4)c(=O)oc3c2C)OC1(C)C
Second compound 0.0316 µM
  IC50: > 3 µM
Second compound 0.1 µM
  IC50: > 3 µM
Second compound 0.316 µM
  IC50: > 3 µM
Second compound 1 µM
  IC50: > 3 µM
Second compound 3.16 µM
  IC50: > 3 µM
Second compound 10 µM
  IC50: > 3 µM
Second compound 0.0316 µM, first compound 0.00949 µM
  viability, T/C: 96.4%
Second compound 0.0316 µM, first compound 0.03 µM
  viability, T/C: 85.9%
Second compound 0.0316 µM, first compound 0.0949 µM
  viability, T/C: 84.7%
Second compound 0.0316 µM, first compound 0.3 µM
  viability, T/C: 89.5%
Second compound 0.0316 µM, first compound 0.949 µM
  viability, T/C: 84.6%
Second compound 0.0316 µM, first compound 3 µM
  viability, T/C: 72.2%
Second compound 0.1 µM, first compound 0.00949 µM
  viability, T/C: 96.4%
Second compound 0.1 µM, first compound 0.03 µM
  viability, T/C: 98.1%
Second compound 0.1 µM, first compound 0.0949 µM
  viability, T/C: 94.1%
Second compound 0.1 µM, first compound 0.3 µM
  viability, T/C: 85.9%
Second compound 0.1 µM, first compound 0.949 µM
  viability, T/C: 89.8%
Second compound 0.1 µM, first compound 3 µM
  viability, T/C: 72.4%
Second compound 0.316 µM, first compound 0.00949 µM
  viability, T/C: 103%
Second compound 0.316 µM, first compound 0.03 µM
  viability, T/C: 91.4%
Second compound 0.316 µM, first compound 0.0949 µM
  viability, T/C: 91%
Second compound 0.316 µM, first compound 0.3 µM
  viability, T/C: 92.4%
Second compound 0.316 µM, first compound 0.949 µM
  viability, T/C: 88.1%
Second compound 0.316 µM, first compound 3 µM
  viability, T/C: 77.9%
Second compound 1 µM, first compound 0.00949 µM
  viability, T/C: 99.2%
Second compound 1 µM, first compound 0.03 µM
  viability, T/C: 93.3%
Second compound 1 µM, first compound 0.0949 µM
  viability, T/C: 86.1%
Second compound 1 µM, first compound 0.3 µM
  viability, T/C: 90.5%
Second compound 1 µM, first compound 0.949 µM
  viability, T/C: 88.5%
Second compound 1 µM, first compound 3 µM
  viability, T/C: 78.6%
Second compound 3.16 µM, first compound 0.00949 µM
  viability, T/C: 92.5%
Second compound 3.16 µM, first compound 0.03 µM
  viability, T/C: 97.9%
Second compound 3.16 µM, first compound 0.0949 µM
  viability, T/C: 86.7%
Second compound 3.16 µM, first compound 0.3 µM
  viability, T/C: 87.3%
Second compound 3.16 µM, first compound 0.949 µM
  viability, T/C: 87.6%
Second compound 3.16 µM, first compound 3 µM
  viability, T/C: 76.3%
Second compound 10 µM, first compound 0.00949 µM
  viability, T/C: 93.7%
Second compound 10 µM, first compound 0.03 µM
  viability, T/C: 97.2%
Second compound 10 µM, first compound 0.0949 µM
  viability, T/C: 91.7%
Second compound 10 µM, first compound 0.3 µM
  viability, T/C: 88.5%
Second compound 10 µM, first compound 0.949 µM
  viability, T/C: 87.6%
Second compound 10 µM, first compound 3 µM
  viability, T/C: 77%
